Where a name gives a salt, the structure may show the parent alone.

From patent US5436260A, “Angiotensin II receptor antagonists” (Warner-Lambert Company, priority 1994, dated 1995) come the findings set out here.

The target of the experiment is T1, AT1 receptor (Rattus norvegicus, UniProt P25095).
T1 construct: rat liver membranes; from tissue; host or cells: rat liver membranes
T1 sequence (P25095 1-359): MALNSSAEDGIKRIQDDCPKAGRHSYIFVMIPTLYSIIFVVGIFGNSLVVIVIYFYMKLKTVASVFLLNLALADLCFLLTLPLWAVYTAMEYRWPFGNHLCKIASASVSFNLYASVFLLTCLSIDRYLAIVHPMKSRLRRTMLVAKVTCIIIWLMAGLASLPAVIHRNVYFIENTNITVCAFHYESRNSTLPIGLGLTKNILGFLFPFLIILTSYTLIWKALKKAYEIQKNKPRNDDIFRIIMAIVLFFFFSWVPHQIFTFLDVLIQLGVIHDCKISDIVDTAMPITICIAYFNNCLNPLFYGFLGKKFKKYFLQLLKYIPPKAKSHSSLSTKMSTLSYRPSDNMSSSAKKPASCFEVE
Put plainly: [^3 H]angiotensin II binding to rat liver membranes (AT1 test). The settings on record: inhibition of [^3 H]angiotensin II binding. The method, then: The compounds of Formula I or Ia are antagonists of angiotensin II. Dudley, D. T., et al, Molecular Pharmacology 1990;38:370-377 reported the existence of 2 subclasses of angiotensin II binding sites in rabbit adrenal gland and uterus and in the rat liver which differ in their tissue distribution and affinity for various peptide and nonpeptide ligands. Thus, the compounds of Formula I or Ia were tested for their ability to inhibit [^3 H]angiotensin II binding to rat liver membranes (AT1 test) according to the methods described by Dudley, D. T., et al, Molecular Pharmacology 1990;38:370-7. […] It is well established that compounds which antagonize the effect of angiotensin II at the AT1 receptor have value for treatment of hypertension and heart failure.
By IC50 is commonly meant the concentration needed to halve the response being measured. The compound `CCCCc1ncc(/C=C(/C(=O)O)N(CCCC)C(=O)NCOC)n1Cc1ccc(C(=O)OC)cc1` [Example 98] registered an IC50 of 377 nM.
With `CCCCc1ncc(/C=C2/C(=O)N(CCCC)C(=O)N2Cc2ccc(C(=O)OC)cc2)n1Cc1ccc(C(=O)OC)cc1` [Example 37, Methyl Z-4-[[2-butyl-5-[[1-butyl-3-[[4-(methoxycarbonyl)phenyl]methyl]-2,5-dioxo-4-imidazolidinylidene]methyl]-1H-imidazol-1-yl]methyl]benzoate monohydrochloride], the IC50 stood at 14.3 nM.
With `CCCCc1ncc(/C=C2/C(=O)N(CCCC)C(=O)N2Cc2ccccc2)n1Cc1ccc(C(=O)OC)cc1` [Example 36, Methyl Z-4-[[2-butyl-5-[[1-butyl-2,5-dioxo-3-(phenylmethyl)-4-imidazolidinylidene]methyl]-1H-imidazol-1-yl]methyl]benzoate monohydrochloride] the figure was 12.4 nM; with `CCCCc1ncc(/C=C2\C(=O)NC(=O)N2Cc2ccc(Cl)cc2)n1Cc1ccc(C(=O)O)cc1` [Example 20a, E-4-[[2-butyl-5-[[3-[(4-chlorophenyl)methyl]-2,5-dioxo-4-imidazolidinylidene]methyl]-1H-imidazol-1-yl]methyl]benzoic acid], 3.36 nM; with `CCCCc1ncc(/C=C2\C(=O)NC(=O)N2CCCC)n1Cc1ccc(C2(C(=O)OC)CCCCC2)cc1` [Example 88b, Methyl E-1-[4-[[2-butyl-5-[[3-butyl-2,5dioxo-4-imidazolidinylidene]methyl]-1H-imidazol-1-yl]methyl]phenyl]cyclohexanecarboxylate], 528 nM.
In turn, `CCCCc1ncc(/C=C2/C(=O)N(CC)C(=O)N2Cc2csc(C)n2)n1Cc1ccc(C(=O)OC)cc1` [Example 109, Methyl Z-4-[[2-butyl-5-[[1-ethyl-3-[(2-methyl-4-thiazolyl)methyl]-2,5-dioxo-4-imidazolidinylidene]methyl]-1H-imidazol-1-yl]methyl]benzoate dihydrochloride] displayed an IC50 of 11.1 nM.
Next, `CCCCc1ncc(/C=C2\C(=O)NC(=O)N2C)n1Cc1ccc(-c2ccccc2-c2nnn[nH]2)cc1` [Example 94, E-5-[[2-butyl-3-[[2'-(1H-tetrazol-5-yl)[1,1'-biphenyl]-4-yl]methyl]-3H-imidazol-4-yl]methylene]1-methyl-2,4-imidazolidinedione]: 8.57 nM; `CCCCc1ncc(/C=C2/C(=O)N(CCCC)C(=O)N2CCc2cccs2)n1Cc1ccc(C(=O)OC)cc1` [Example 79, Methyl Z-4-[[2-butyl-5-[[1-butyl-2,5-dioxo-3-[2(2-thienyl)ethyl]-4-imidazolidinylidene]methyl]-1H-imidazol-1-yl]methyl]benzoate monohydrochloride]: 14.5 nM.
With `CCCCc1ncc(/C=C2/C(=O)NC(=O)N2Cc2cccs2)n1Cc1ccc(C2(C(=O)O)CCCC2)cc1` [Example 26b, Z-1-[4-[[2-butyl-5-[[2,5-dioxo-3-(2-thienylmethyl)-4-imidazolidinylidene]methyl]-1H-imidazol-1-yl]methyl]phenyl]cyclopentanecarboxylic acid] the figure was 2.22 nM; with `CCCCc1ncc(/C=C2/C(=O)N(CCCC)C(=O)N2Cc2ccc(C)s2)n1Cc1ccc(C(=O)O)cc1` [Example 74, Z-4-[[2-butyl-5-[[1-butyl-3-[(5-methyl-2-thienyl)methyl]-2,5-dioxo-4imidazolidinylidene]methyl]-1H-imidazol-1-yl]methyl]benzoic acid], 0.6 nM.
`CCCCc1ncc(CC2C(=O)NC(=O)N2CCCC)n1Cc1ccc(C(=O)O)cc1` (centres unmarked) [Example 65, 4-[[2-Butyl-5-[(3-butyl-2,5-dioxo-4-imidazolidinyl)methyl]-1H-imidazol-1-yl]methyl]benzoic acid] showed an IC50 of 200 nM.
Next, `CCCCc1ncc(/C=C2\C(=O)N(CCCC)C(=O)N2Cc2csc(C)n2)n1Cc1ccc(C(=O)O)cc1` [Example 60, E-4-[[2-butyl-5-[[1-butyl-3-[(2-methyl-4-thiazolyl)methyl]-2,5-dioxo-4-imidazolidinylidene]methyl]-1H-imidazol-1-yl]methyl]benzoic acid]: 2.63 nM.
Next, `CCCCCCN1C(=O)/C(=C/c2cnc(CCCC)n2Cc2ccc(C(=O)OC)cc2)N(Cc2ccccc2)C1=O` [Example 50, Methyl Z-4-[[2-butyl-5-[[1-hexyl-2,5-dioxo-3-(phenylmethyl)-4-imidazolidinylidene]methyl]-1H-imidazol-1-yl]methyl]benzoate monohydrochloride]: 26.6 nM; `CCCCCCN1C(=O)/C(=C/c2cnc(CCCC)n2Cc2ccc(C(=O)OC)cc2)N(CCCC)C1=O` [Example 48, Methyl Z-4-[[2-butyl-5-[(3-butyl-1-hexyl-2,5-dioxo-4-imidazolidinylidene)methyl]-1H-imidazol-1-yl]methyl]benzoate monohydrochloride]: 14.6 nM; `CCCCc1ncc(/C=C2\NC(=O)N(CCCC(F)(F)F)C2=O)n1Cc1ccc(C(=O)OC)cc1` [Example 107, Methyl Z-4-[[2-butyl-5-[[2,5-dioxo-4,4,4,-(trifluorobutyl)-4-imidazolidinylidene]methyl]-1H-imidazol-1-yl]methyl]benzoate]: 1450 nM.
Consider `CCCCc1ncc(/C=C2/C(=O)NC(=O)N2CCCC)n1Cc1ccc(-c2ccccc2-c2nn[nH]n2)cc1` [Example 91, Z-1-Butyl-5-[[2-butyl-3-[[2'-(1H-tetrazol-5-yl)[1,1'-biphenyl]-4-yl]methyl]-3H-imidazol-4-yl]methylene]-2,4-imidazolidinedione], for which the IC50 was determined as 1.37 nM.
Next, `CCCCc1ncc(/C=C2/C(=O)NC(=O)N2Cc2ccc(Cl)cc2)n1Cc1ccc(C(=O)OC)cc1` [Example 64, Methyl Z-4-[[2-butyl-5-[[3-[(4-chlorophenyl)methyl]-2,5-dioxo-4-imidazolidinylidene]methyl]-1H-imidazol-1-yl]methyl]benzoate monohydrochloride]: 4.3 nM.
With `CCCCc1ncc(/C=C2\C(=O)NC(=O)N2Cc2cccs2)n1Cc1ccc(C2(C(=O)O)CCCC2)cc1` [Example 26a, E-1-[4-[[2-butyl-5-[[2,5-dioxo-3-(2-thienylmethyl)-4-imidazolidinylidene]methyl]-1H-imidazol-1-yl]methyl]phenyl]cyclopentanecarboxylic acid] the figure was 2.63 nM; with `CCCCc1ncc(/C=C2/C(=O)N(COC)C(=O)N2CCCC)n1Cc1ccc(C(=O)OC)cc1` [Example 54, Methyl Z-4-[[2-butyl-5-[[3-butyl-1-(methoxymethyl)-2,5-dioxo-4-imidazolidinylidene]methyl]-1H-imidazol-1-yl]methyl]benzoate monohydrochloride], 29.5 nM.
Next, `CCCCc1ncc(/C=C2/C(=O)N(CCCC)C(=O)N2CCCC)n1Cc1ccc(C(=O)OC)cc1` [Example 33, Methyl Z-4-[[2-butyl-5-[(1,3-dibutyl-2,5-dioxo-4-imidazolidinylidene)methyl]-1 H-imidazol-1-yl]methyl]benzoate monohydrochloride]: 8.49 nM; `CCCCc1ncc(/C=C2/C(=O)NC(=O)N2CCCC)n1Cc1ccc(-c2ccccc2C(=O)OC)cc1` [Example 96a]: 15.9 nM.
For the compound `CCCCc1nc(Br)c(/C=C2/C(=O)NC(=O)N2CCCC)n1Cc1ccc(-c2ccccc2C(=O)OC)cc1` [Example 97a, Methyl Z-4'-[[4-bromo-2-butyl-5-[(3-butyl-2,5-dioxo-4-imidazolidinylidene)methyl]-1H-imidazol-1-yl]methyl][1,1'-biphenyl]-2-carboxylate], the IC50 worked out at 700 nM.
Next, `CCCCc1ncc(/C=C2/C(=O)N(CCCC)C(=O)N2CC(=O)c2ccccc2)n1Cc1ccc(C(=O)OC)cc1` [Example 104, Methyl Z-4-[[2-butyl-5-[[1-butyl-2,5-dioxo-3-(2-oxo-2-phenylethyl)-4-imidazolidinylidene]methyl]-1H-imidazol-1-yl]methyl]benzoate monohydrochloride]: over 1000 nM.
Next, `CCCCc1ncc(/C=C2/C(=O)N(CCCC)C(=O)N2Cc2sccc2C)n1Cc1ccc(C(=O)OC)cc1` [Example 72, Methyl Z-4-[[2-butyl-5-[[1-butyl-3-[(3-methyl-2-thienyl)methyl]-2,5-dioxo-4-imidazolidinylidene]methyl]-1H-imidazol-1-yl]methyl]benzoate hydrochloride]: 23.9 nM; `CCCCc1ncc(/C=C2/C(=O)N(CCCC)C(=O)N2Cc2cc(Br)cs2)n1Cc1ccc(C(=O)OC)cc1` [Example 78, Methyl Z-4-[[5-[[3-[(4-bromo-2-thienyl)methyl]-1-butyl-2,5-dioxo-4-imidazolidinylidene]methyl]-2-butyl-1H-imidazol-1-yl]methyl]benzoate monohydrochloride]: 21.9 nM.
With `CCCCc1ncc(/C=C2/C(=O)N(CCCC)C(=O)N2Cc2c(C)noc2C)n1Cc1ccc(C(=O)OC)cc1` [Example 69, Methyl Z-4-[[2-butyl-5-[[1-butyl-3-[(3,5-dimethyl-4-isoxazolyl)methyl]-2,5-dioxo-4-imidazolidinylidene]methyl]-1H-imidazol-1-yl]methyl]benzoate monohydrochloride] the figure was 198 nM.
